# Results published in patent US5830910A (priority 1995, dated 1998).
# Like-named read-outs stand apart in the source and are kept apart here.
# Legend:
# [1] = test system: cultured hippocampal neurons; assay: cells; format: cell-based, rat
# [2] = test system: neuronal [Ca^2+]i in cultured hippocampal neurons; assay: measurement of [Ca^2+]i, fura-2 imaging; format: cell-based, rat; conditions: 10 μM, 3 h pretreatment; 50 μM glutamate
# Excerpt: (§1) Dissociated embryonic rat hippocampal cell cultures were established and maintained. All procedures conformed with the NIH Guide for the Care and Use of Laboratory Animals and were approved by the University of Kentucky Animal Care and Use Committee. Cultures were maintained on a polyethyleneimine-coated substrate in plastic 35-mm dishes or 96 wall plates (for cell survival studies) or glass-bottom 35-mm dishes (for [Ca^2+ ]i imaging studies). The cell density was ^~ 70-100 cells/mm^2. Cells were maintained in Eagle's minimum essential medium supplemented 10% with fetal bovine serum and containing 20 mM sodium pyruvate. […] Aβ25-35 (Bachem, lot ZJ744) and Aβ1-40 (Bachem, lot ZK600) were stored in the lyophilized form, and stocks were prepared immediately before use by dissolving the peptide at a concentration of 1 mM in sterile distilled water. […] Glutamate and colchicine (Sigma) were prepared as 200-500x stocks in saline. Cytochalasins D and E (Sigma) and calcium ionophore 4-bromo-A23187 (Calbiochem) were prepared as 500x stocks in dimethyl sulfoxide. Vitamin E (α-tocopherol; Sigma) was prepared as a 500x stock in ethanol. Nordihydroguaiaretic acid and FeSo4 were prepared as 500x stocks in sterile water.
# Fluorescence ratio imaging of the Ca^2+ indicator dye fura-2 was used to quantify [Ca^2+ ]i in neuronal somata. Cells were incubated for 30-40 min in the presence of 2 μM acetoxymethyl ester form of the [Ca^2+ ]i indicator dye fura-2 and were then washed twice (2 ml/wash) with fresh medium and allowed to incubate at least 40 min before imaging. Immediately before imaging, the normal culture medium was replaced with Hanks' balanced saline solution (GIBCO) containing 10 mM HEPES buffer and 10 mM of glucose. Cells were imaged using a Zeiss Attofluor system with a oil objective or Quantex system with a 40x oil objective. The ratio of the fluorescence emission using two different excitation wavelengths (334 and 380 nm) was used to determine [Ca^2+ ]i. The system was calibrated using solutions containing either no Ca^2+ or a saturating level of Ca^2+ (1 mM) according to the following formula: [Ca^2+ ]i =KD [(R-Rmin) / (Rmax -R)] (F0 /FS). Values represent the average [Ca^2+ ]i in the neuronal cell body. Experimental treatments were added to the bathing medium by dilution from 100-500x stocks.
# (A) Cultures were pretreated for 1 hr with 100 nM cytochalasin D and then [Ca^2+ ]i in neurons was monitored prior to and following exposure to 50 μM glutamate. The records represent the mean [Ca^2+ ]i in 8-12 neurons. Similar results were obtained in 4 separate experiments.
# (B) Aβ-induced potentiation of [Ca^2+ ]i response to glutamate is abrogated by cytochalasin D. Cultures were left untreated (Control) or were exposed to 20 μM Aβ25-35 for 6 hr or cytochalasin D plus Aβ25-35 for 6 hr. The [Ca^2+ ]i was then monitored prior to following exposure to 50 μM glutamate. Values represent the means of 8-14 neurons. Similar results were obtained in 3 separate experiments.
# (C) Cultures were pretreated for 3 hr with 50 μM Aβ alone or in combination with 100 nM cytochalasin D. The [Ca^2+ ]i in neurons was then monitored prior to and following exposure to 50 mM KCl. Values represent the mean of 14-23 neurons. Similar results were obtained in a separate experiment.
# (D) Cultures were pretreated for 1 h with 100 nM cytochalasin D. The [Ca^2+ ]i in neurons was measured immediately prior to, and at 5 min following, exposure to the indicated concentrations of glutamate. Values represent the means and SEM of determinations made in 17-26 neurons. *P<0.05 (10 μM glutamate), P<0.02 (50 μM glutamate), P<0.01 (100 μAM glutamate) compared to corresponding control values.
# FIG. 9. Cultures were pretreated for 3 h with vehicle (control) or 10 μM jasplakinolide. The [Ca^2+ ]i was monitored prior to and following exposure to 50 μM glutamate. Values represent the mean of determinations made in 10-12 neurons. Similar results were obtained in two additional experiments.
# FIG. 10. […]
# [3] = test system: cultured hippocampal neurons; assay: cells; format: cell-based, rat; conditions: Rattus norvegicus, Hippocampal neuron
# Excerpt: as §1
# (§2) Neuronal survival was quantified by counting viable neurons in the same microscope fields (10x objective) immediately before experimental treatment and at time points after treatment. In addition, cells were grown in 96-well plates and Alamar blue fluorescence (Alamar Laboratories)was quantified by using a fluorescence plate reader. Alamar Blue is a non-fluorescent substrate that, after reduction by cell metabolites, becomes fluorescent. Usually neurons that died in the time intervals (20-48 h) between examination points were absent. Viability of the remaining neurons was assessed by morphological criteria. Neutrons with intact neurites of uniform diameter and a soma with a smooth, round appearance were considered viable, whereas neurons with fragmented neurites and a vacuolated or swollen soma were considered nonviable. Survival values were expressed as percentages of the initial number of neurons present before experimental treatment. Statistical comparisons were made using ANOVA and Scheffe post-hoc tests for pairwise comparisons.
# Values represent the means and SEM of 4 separate cultures (cell counts) or 4 culture wells (Alamar blue assay). ^a p<0.05 compared to control value. ^b p<0.001 compound to control value. ^c p<0.01 compared to value for glutamate-treated cultures. ^d p<0.005 compared to value for glutamate-treated cultures. ^e p<0.001 compared to value for Aβ-treated cultures. ^f p<0.001 compared to value for cultures treated with 20 μM glutamate. ^g p<0.001 compared to cultures treated with 50 μM Aβ+20 μM glutamate. n.d. not determined.
# [4] = test system: cultured hippocampal neurons; assay: cells; format: cell-based, rat; remark: listed apart in the source
# Excerpt: as §1, §2
# FIG. 5. […] Cytochalasin D was added to cultures 30 min prior to exposure to glutamate, and control cultures were exposed to 0.2% dimethylsulfoxide.
# (A) Neuronal survival was quantified in cultures that had been pretreated with the indicated concentrations of cytochalasin D and then exposed to 50 μM glutamate for 20 h. Values represent the means and SEM of determinations made in four separate cultures. […] Pairwise statistical comparisons of cytochalasin-treated cultures with the control survival (Scheffe's test) indicated 1 nM cytochalasin D, P<0.05; 10 nM cytochalasin D, P<0.001; 100 and 1000 nM cytochalasin D, P<0.0001.
# (B) Neuronal survival was quantified in cultures that had been pretreated with either vehicle (control) or 100 nM cytochalasin D and then exposed to the indicated concentrations of glutamate for 20 h. Values represent the means and SEM of determinations made in four separate cultures. […] ANOVA with Scheffe's post hoc test.
# FIG. 6. (A) Cultures were pretreated with 100 nM cytochalasin D (CyD), 100 nM cytochalasin E (CyE), or 100 nM colchicine (Colch). Cultures were then exposed to 50 μM glutamate for 20 h. Values for neuronal survival represent the means and SEM of determinations made in four separate cultures. *P<0.001 compared to control value. **P<0.001 compared to value for cultures exposed to glutamate alone.
# […] Values represent the means and SEM of determinations made in four separate cultures. *P<0.01 compared to value for cultures exposed to 20 μM glutamate alone. **P<0.05 compared to cultures exposed to 50 μM glutamate alone.
# [5] = test system: hippocampal region CA3 neurons; assay: kainate lesion paradigm, CA3 neurons; format: in vivo, rat (Sprague-Dawley)
# Protocol: A kainate lesion paradigm was employed in adult rats to determine whether cytochalasin D was also excitoprotective. Twenty-four adult male Sprague-Dawley rats (250-300 g) were divided into the indicated experimental groups (4-5 rats/group). Kainate (0.5 µg/[…]) was injected stereotaxically into region CA1 of the right hippocampus of anesthetized rats. Cytochalasin D (the indicated concentration in 1 μl of saline-1% DMSO) or vehicle was infused into the right lateral ventricle during a 5-10 min period immediately following kainate injection. Rats were killed 48 hr later and perfused transcardially with 4% paraformaldehyde. Brain sections (30 μm) were stained with cresyl violet and stained neurons in three adjacent 40X microscope fields of hippocampal region CA3 were counted (5 sections/rat) . The neuronal counts were performed in sections removed approximately 200-400 μm from the injection site. This method results in highly reproducible, 75-99%, neuronal loss in the CA3 region in over 99% of the rats injected with kainate (calculations based on 302 rats receiving intra-hippocampal kainate). […] Approximately 80% of the neurons were killed by kainate in control animals receiving an intracerebroventricular infusion of saline immediately following kainate administration.
# Cresyl violet-stained coronal sections from brains of rats administered kainate alone (left) of kainate plus cytochalasin D (CyD; right). […] Lower micrographs are high magnification of a region of CA3 from the sections shown in the upper panels.
# FIG. 3. Counts of viable neurons were made in region CA3 of Sham-operated rats, and rats infused intraventricularly with vehicle or increasing concentration of cytochalasin D […] unilateral kainate injection into region CA1 of the hippocampus. Neuronal survival in the kainate injected hippocampus is expressed as a percentage of neurons in the contralateral hippocampus. Values represent the mean and SEM (4 or 5 rats/group). *p<0.01 compared to value for sham rats. **p<0.01 compared to value for vehicle-infused rats. (ANOVA with Scheffe's post-hoc test).
# [6] = test system: cultured hippocampal neurons; assay: iron (FeSO4) neurotoxicity; format: cell-based, rat
# Excerpt: as §1, §2
# FIG. 8. Cultures were preincubated 1 h in the presence of 0.5% dimethylsulfoxide (control), 100 nM cytochalasin D, 50 μg/ml vitamin E (VitE), or 2 μM nordihydroguairetic acid (NDGA). Cultures were then exposed for 6 h to the indicated concentrations of FeSO4 and neuronal survival was quantified. Values represent the means and SEM of determinations made in four separate cultures. *P<0.001 compared to value for cultures exposed to 100 μM FeSO4 alone.
# [7] = test system: cultured hippocampal neurons; format: cell-based, rat
# Excerpt: as §1, §2
# FIG. 12. (A) Cultures were pretreated for 1 h with vehicle 0.2% dimethyl sulfoxide (Control) or 100 nM cytochalasin D (CyD) and were exposed to the indicated concentrations of Aβ25-35 for 48 h. Data are mean and SEM values of determinations made in four separate cultures.
# (B) Cultures were pretreated for 1 h with the indicated concentrations of cytochalasin D and then exposed to 50 μM Aβ25-35; parallel cultures were exposed to cytochalasin D alone (Control) . Data are mean and SEM values of determinations made in four separate cultures.
# FIG. 14. Cultures were exposed to 100 nM colchicine; 50 μM Aβ; 100 nM colchicine plus 50 μM Aβ; 100 nM cytochalasin E (CyE) plus Aβ (colchicine and cytochalasin E were added 1 h before Aβ); neuronal survival was assessed 48 h later. Data are mean and SEM values of determinations made in four separate cultures. *p<0.01, compared with values for control or colchicine alone. **p<0.01, compared with value for cultures exposed to Aβ alone.
# [8] = read-out: Neuron Survival (% of control), Alamar Blue Assay
smiles,measurement,setting,value
"CC1=CC(C)CC(C)OC(=O)CC(c2ccc(O)cc2)NC(=O)C(Cc2c(Br)[nH]c3ccccc23)N(C)C(=O)C(C)NC(=O)C(C)C1 (centres unmarked) [Jasplakinolide, jasplakinolide, reference compound]",effect on glutamate neurotoxicity,"[1]; preincubated 3 h, 10 μM (FIG. 6B legend: 1 h, 5 μM)",significantly potentiated
same,effect on glutamate-induced elevation of [Ca^2+]i,[2],potentiated
"N[C@@H](CCC(=O)O)C(=O)O [Glutamate, glutamate, reference compound]",viability at 100 µM,"[1]; Rattus norvegicus, Hippocampal neuron, 24 h, read-out: neuronal survival in cultures exposed to glutamate",< 20%
same,viability at 20 µM,[3]; [8],74 ± 0.7%
same,viability at 100 µM,[3]; [8],18 ± 5.4%
same,viability at 100 µM,"[3]; read-out: Neuron Survival (% of control), Cell Counts",15 ± 3.3%
same,CC50,"[4]; Rattus norvegicus, Hippocampal neuron, 20 h, read-out: ED50 for reduction in neuronal survival",~35 µM
same,cytotoxicity at 100 µM,"[4]; Rattus norvegicus, Hippocampal neuron, 20 h, read-out: maximum killing of neurons",> 80%
same,cytotoxicity at 50 µM,"[4]; Rattus norvegicus, Hippocampal neuron, 20 h, read-out: neurons killed",> 70%
"C=C(C)[C@H]1CN[C@H](C(=O)O)[C@H]1CC(=O)O [Kainate, kainate, reference compound]",neurons killed by kainate,"[5]; control animals receiving i.c.v. saline, 48 hr",Approximately 80%
same,neuronal loss in the CA3 region,"[5]; intrahippocampal kainate, over 99% of rats (302 rats)",75-99%
"CC(Cc1ccc(O)c(O)c1)C(C)Cc1ccc(O)c(O)c1 (centres unmarked) [nordihydro-guaiaretic acid, Nordihydroguaiaretic acid]",effect on neurotoxicity of iron,"[6]; 50 μg/ml vitamin E or 2 μM NDGA, 1 h preincubation",completely blocked
"C[C@H]1C/C=C/[C@H]2[C@@H]3O[C@]3(C)[C@@H](C)[C@H]3[C@H](Cc4ccccc4)NC(=O)[C@]32OC(=O)O/C=C/[C@@](C)(O)C1=O [Cytochalasin E, cytochalasin E]",protection against glutamate toxicity,"[4]; 100 nM, 50 μM glutamate, 20 h",significant protection against glutamate toxicity
same,protection against toxicity of glutamate,[4]; 10-100 nM,protected
same,effect on Aβ neurotoxicity,"[7]; 100 nM, added 1 h before 50 μM Aβ, 48 h",attenuated Aβ neurotoxicity significantly
same,protection against toxicity of Aβ,[7]; 10-100 nM,protected
O=S(=O)([O-])[O-].[Fe+2] [FeSo4],loss of neurons,"[6]; FeSO4 10-100 nM as printed, 6 h",concentration-dependent loss of neurons
